Assay [1] concerns the target KDR (Homo sapiens, UniProt P35968). Put plainly: KDR autophosphorylation ELISA in HUVEC cells. Also noted: endogenous in cells; host or cells: HUVEC (Lonza #C2519A). It is filed as cell-based. To be noted: Table 3 Cellular Activities, VEGF165-stimulated, phospho-KDR ELISA. The procedure, abridged: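 HUVECs grown 24 h at 37 °C, then serum-starved 24 h, were preincubated 1 h with an 8-point compound series (0.3% DMSO) and stimulated with 100 ng/mL human VEGF165 for 5 min. Phospho-KDR in lysates was measured by sandwich ELISA against a phospho-KDR standard; IC50 from 4-parameter logistic fit.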
In general terms: In an ELISA, binding on a coated surface is turned into a signal by an enzyme label.

Assay [2] has as its target T1, Mer (Homo sapiens, UniProt Q12866).
T1 construct: host or cells: 293A cells (Thermo Fisher #R70507)
T1 sequence (Q12866 21-999): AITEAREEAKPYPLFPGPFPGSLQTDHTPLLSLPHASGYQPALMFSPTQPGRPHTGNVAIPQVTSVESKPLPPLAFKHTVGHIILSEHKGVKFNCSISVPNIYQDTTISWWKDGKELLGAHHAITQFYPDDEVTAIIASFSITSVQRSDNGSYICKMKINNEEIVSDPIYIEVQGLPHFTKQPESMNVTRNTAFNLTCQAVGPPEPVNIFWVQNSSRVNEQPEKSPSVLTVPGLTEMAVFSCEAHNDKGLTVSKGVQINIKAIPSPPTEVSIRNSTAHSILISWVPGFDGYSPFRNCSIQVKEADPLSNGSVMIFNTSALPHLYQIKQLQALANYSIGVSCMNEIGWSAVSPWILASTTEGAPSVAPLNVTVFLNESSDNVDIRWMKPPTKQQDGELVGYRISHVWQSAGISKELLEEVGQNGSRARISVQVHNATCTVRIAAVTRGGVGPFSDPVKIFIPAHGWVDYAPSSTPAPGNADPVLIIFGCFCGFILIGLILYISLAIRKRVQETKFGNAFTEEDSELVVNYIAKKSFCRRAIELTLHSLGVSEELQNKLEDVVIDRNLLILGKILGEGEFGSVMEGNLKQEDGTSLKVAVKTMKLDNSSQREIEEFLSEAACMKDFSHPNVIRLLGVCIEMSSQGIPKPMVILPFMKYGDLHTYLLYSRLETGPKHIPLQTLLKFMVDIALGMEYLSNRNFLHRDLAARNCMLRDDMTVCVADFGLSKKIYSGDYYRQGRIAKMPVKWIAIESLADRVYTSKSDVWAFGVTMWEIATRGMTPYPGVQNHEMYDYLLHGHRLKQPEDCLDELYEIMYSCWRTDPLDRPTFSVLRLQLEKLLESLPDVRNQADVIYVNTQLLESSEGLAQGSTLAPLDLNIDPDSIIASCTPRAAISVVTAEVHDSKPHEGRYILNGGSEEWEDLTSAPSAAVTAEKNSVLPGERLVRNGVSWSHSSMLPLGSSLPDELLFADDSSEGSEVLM
Put plainly: Mer autophosphorylation ELISA in transient transfected 293A cells. To be noted: Table 3 Cellular Activities; MERTK-transfected 293A cells, phospho-Mer ELISA. It is filed as cell-based. A digest of the protocol:
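293A cells transiently transfected with human MERTK DNA, replated after 24 h, then treated 1 h with 8-point compound dilutions in serum-free medium (0.3% DMSO). Lysates assayed by phospho-Mer sandwich ELISA against phospho-Mer standard; DMSO = 100%, reference inhibitor = 0% activity; IC50 by 4-parameter logistic fit.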

Each structure is given as a SMILES string. Counter-ions that a name gives are not always drawn.

As a reminder, the IC50 is the midpoint of a concentration-inhibition curve.

Chain of KDR (P35968 20-1356): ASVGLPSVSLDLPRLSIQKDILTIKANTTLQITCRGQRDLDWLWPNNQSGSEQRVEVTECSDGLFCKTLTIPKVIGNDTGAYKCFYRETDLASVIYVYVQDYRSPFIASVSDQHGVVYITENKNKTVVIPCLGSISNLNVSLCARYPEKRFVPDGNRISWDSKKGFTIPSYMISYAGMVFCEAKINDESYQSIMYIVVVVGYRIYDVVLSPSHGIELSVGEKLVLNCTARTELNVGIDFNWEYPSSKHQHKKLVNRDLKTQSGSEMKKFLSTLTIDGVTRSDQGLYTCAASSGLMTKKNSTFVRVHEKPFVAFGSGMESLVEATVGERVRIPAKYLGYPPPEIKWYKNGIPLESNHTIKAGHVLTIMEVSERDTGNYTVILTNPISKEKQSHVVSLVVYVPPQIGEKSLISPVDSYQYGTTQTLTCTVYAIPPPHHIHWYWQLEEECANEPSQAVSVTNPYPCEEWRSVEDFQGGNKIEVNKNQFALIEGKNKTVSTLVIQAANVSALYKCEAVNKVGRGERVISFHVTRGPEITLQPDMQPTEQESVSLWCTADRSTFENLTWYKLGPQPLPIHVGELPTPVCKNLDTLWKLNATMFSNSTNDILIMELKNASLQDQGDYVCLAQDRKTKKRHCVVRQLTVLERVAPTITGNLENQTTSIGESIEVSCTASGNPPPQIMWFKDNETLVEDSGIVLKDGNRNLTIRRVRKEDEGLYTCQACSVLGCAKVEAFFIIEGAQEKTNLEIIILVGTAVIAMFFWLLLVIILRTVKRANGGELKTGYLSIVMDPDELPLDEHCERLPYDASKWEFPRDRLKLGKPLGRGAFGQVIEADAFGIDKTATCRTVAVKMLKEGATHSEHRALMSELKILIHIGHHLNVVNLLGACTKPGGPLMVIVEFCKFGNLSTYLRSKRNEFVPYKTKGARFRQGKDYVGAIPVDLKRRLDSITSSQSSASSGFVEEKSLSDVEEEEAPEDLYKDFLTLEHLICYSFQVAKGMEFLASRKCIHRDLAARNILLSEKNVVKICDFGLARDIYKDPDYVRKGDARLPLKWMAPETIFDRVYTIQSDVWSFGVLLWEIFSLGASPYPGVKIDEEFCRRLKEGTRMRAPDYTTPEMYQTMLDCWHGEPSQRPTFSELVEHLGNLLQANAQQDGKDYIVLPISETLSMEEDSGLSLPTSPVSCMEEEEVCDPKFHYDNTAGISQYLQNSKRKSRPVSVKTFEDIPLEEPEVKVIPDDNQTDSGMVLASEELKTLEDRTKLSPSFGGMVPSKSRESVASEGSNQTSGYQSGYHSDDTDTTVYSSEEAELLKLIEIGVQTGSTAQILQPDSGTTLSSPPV

As to `COc1cc2nccc(Oc3ccc(NC(=O)c4c(C)n(C)cc(-c5ccc(F)cn5)c4=O)cc3)c2nc1OC` [Compound 72, N-[4-[(6,7-Dimethoxy-1,5-naphthyridin-4-yl)oxy]phenyl]-5-(5-fluoropyridin-2-yl)-1,2-dimethyl-4-oxopyridine-3-carboxamide], the IC50 is 300 to 1000 nM in assay [1] and at most 100 nM in assay [2].

On to `COc1cnc2c(Oc3ccc(NC(=O)c4c(C)n(C)cc(-c5ccc(F)cn5)c4=O)cc3F)ccnc2c1` [Compound 73, N-[3-Fluoro-4-[(7-methoxy-1,5-naphthyridin-4-yl)oxy]phenyl]-5-(5-fluoropyridin-2-yl)-1,2-dimethyl-4-oxopyridine-3-carboxamide], for which the IC50 in assay [1] is 300 to 1000 nM; in assay [2], at most 100 nM.

As to `COc1cc2nccc(Oc3ccc(NC(=O)c4cnc(C)c(-c5ccc(F)cn5)c4O)cc3F)c2nc1OC` [Compound 85, N-[4-[(6,7-Dimethoxy-1,5-naphthyridin-4-yl)oxy]-3-fluorophenyl]-5-(5-fluoropyridin-2-yl)-4-hydroxy-6-methylpyridine-3-carboxamide], the IC50 in assay [1] and in assay [2] was at most 100 nM throughout.

For the compound `COc1cc2nccc(Oc3ccc(NC(=O)c4cn(C)c(C)c(-c5ccc(F)cn5)c4=O)cc3)c2nc1OC` [Compound 86, N-[4-[(6,7-Dimethoxy-1,5-naphthyridin-4-yl)oxy]phenyl]-5-(5-fluoropyridin-2-yl)-1,6-dimethyl-4-oxopyridine-3-carboxamide], the IC50 was 300 to 1000 nM in assay [1] and at most 100 nM in assay [2].

With `COc1cc2nccc(Oc3ccc(NC(=O)c4c(C)ncc(-c5ncc(F)cc5C)c4O)cc3F)c2nc1OC` [Compound 200, N-[4-[(6,7-Dimethoxy-1,5-naphthyridin-4-yl)oxy]-3-fluorophenyl]-5-(5-fluoro-3-methylpyridin-2-yl)-4-hydroxy-2-methylpyridine-3-carboxamide], the 50% inhibitory concentration (IC50) in assay [1] and in assay [2] was at most 100 nM each time.

On to `COCc1nc(C)c(-c2ccc(F)cn2)c(O)c1C(=O)Nc1ccc(Oc2ccnc3cc(OC)c(OC)nc23)c(F)c1` [Compound 214, N-[4-[(6,7-Dimethoxy-1,5-naphthyridin-4-yl)oxy]-3-fluorophenyl]-5-(5-fluoropyridin-2-yl)-4-hydroxy-2-(methoxymethyl)-6-methylpyridine-3-carboxamid], for which the IC50 in assay [1] and in assay [2] was at most 100 nM in each case.

As for `COc1cc2nccc(Oc3ccc(NC(=O)c4nnc(C)c(-c5ccc(F)cn5)c4OC)cc3F)c2nc1OC` [Compound 215, N-[4-[(6,7-Dimethoxy-1,5-naphthyridin-4-yl)oxy]-3-fluorophenyl]-5-(5-fluoropyridin-2-yl)-4-methoxy-6-methylpyridazine-3-carboxamide], the IC50 in assay [1] is 300 to 1000 nM; in assay [2] it was at most 100 nM.

In the case of `COc1cc2nccc(Oc3ccc(NC(=O)c4c(C)nc(C)c(-c5ccc(F)cn5)c4O)cc3)c2nc1OC` [Compound 216, N-[4-[(6,7-Dimethoxy-1,5-naphthyridin-4-yl)oxy]phenyl]-5-(5-fluoropyridin-2-yl)-4-hydroxy-2,6-dimethylpyridine-3-carboxamide], the IC50 in assay [1] and in assay [2] was at most 100 nM throughout.

Take `COc1cnc2c(Oc3ccc(NC(=O)c4c(C)nc(C)c(-c5ccc(F)cn5)c4O)cc3F)ccnc2c1` [Compound 217, N-[3-Fluoro-4-[(7-methoxy-1,5-naphthyridin-4-yl)oxy]phenyl]-5-(5-fluoropyridin-2-yl)-4-hydroxy-2,6-dimethylpyridine-3-carboxamide]: the IC50 in assay [1] and in assay [2] was at most 100 nM in each case.

As for `COc1cc2nccc(Oc3ccc(NC(=O)c4c(C)nc(C)c(-c5ccc(F)cn5)c4O)cc3F)c2nc1OC` [Compound 218, N-[4-[(6,7-Dimethoxy-1,5-naphthyridin-4-yl)oxy]-3-fluorophenyl]-5-(5-fluoropyridin-2-yl)-4-hydroxy-2,6-dimethylpyridine-3-carboxamide], the IC50 in assay [1] and in assay [2] was at most 100 nM in each case.

As for `COc1cc2nccc(Oc3ccc(NC(=O)c4ncc(C)n(-c5ccc(F)cn5)c4=O)cc3F)c2nc1OC` [Compound 219, N-[4-[(6,7-Dimethoxy-1,5-naphthyridin-4-yl)oxy]-3-fluorophenyl]-4-(5-fluoropyridin-2-yl)-5-methyl-3-oxopyrazine-2-carboxamide], the IC50 in assay [1] and in assay [2] was at most 100 nM in each case.

Regarding `COc1cc2nccc(Oc3ccc(NC(=O)c4ccc(C)n(-c5ccncc5F)c4=O)cc3F)c2nc1OC` [Compound 220, N-[4-[(6,7-Dimethoxy-1,5-naphthyridin-4-yl)oxy]-3-fluorophenyl]-1-(3-fluoropyridin-4-yl)-6-methyl-2-oxopyridine-3-carboxamide], the IC50 in assay [1] and in assay [2] was at most 100 nM in each case.

As to `COc1cc2nccc(Oc3ccc(NC(=O)c4ccc(C)n(-c5ccncc5)c4=O)cc3F)c2nc1OC` [Compound 221, N-[4-[(6,7-Dimethoxy-1,5-naphthyridin-4-yl)oxy]-3-fluorophenyl]-6-methyl-2-oxo-1-pyridin-4-ylpyridine-3-carboxamid], the IC50 in assay [1] and in assay [2] was at most 100 nM each time.

As to `COc1cc2nccc(Oc3ccc(NC(=O)c4ccc(C)n(-c5cccnc5)c4=O)cc3F)c2nc1OC` [Compound 222, N-[4-[(6,7-Dimethoxy-1,5-naphthyridin-4-yl)oxy]-3-fluorophenyl]-6-methyl-2-oxo-1-pyridin-3-ylpyridine-3-carboxamide], the IC50 in assay [1] and in assay [2] was at most 100 nM in each case.

As for `COc1cc2c(Oc3ccc(NC(=O)c4c(C)ncc(-c5ccccn5)c4O)cc3F)ccnc2cn1` [Compound 223, N-[3-Fluoro-4-[(6-methoxy-1,7-naphthyridin-4-yl)oxy]phenyl]-4-hydroxy-2-methyl-5-pyridin-2-ylpyridine-3-carboxamide], the IC50 in assay [1] and in assay [2] was at most 100 nM in each case.

Consider `COc1cc(-n2c(C)ccc(C(=O)Nc3ccc(Oc4ccnc5cc(OC)c(OC)nc45)c(F)c3)c2=O)ccn1` [Compound 226, N-[4-[(6,7-Dimethoxy-1,5-naphthyridin-4-yl)oxy]-3-fluorophenyl]-1-(2-methoxypyridin-4-yl)-6-methyl-2-oxopyridine-3-carboxamide], for which the IC50 in assay [1] and in assay [2] was at most 100 nM each time.

In the case of `COc1cc2nccc(Oc3ccc(NC(=O)c4ccc(C)n(-c5ccc(F)c(C)n5)c4=O)cc3F)c2nc1OC` [Compound 227, N-[4-[(6,7-Dimethoxy-1,5-naphthyridin-4-yl)oxy]-3-fluorophenyl]-1-(5-fluoro-6-methylpyridin-2-yl)-6-methyl-2-oxopyridine-3-carboxamide hydrochloride], the IC50 in assay [1] and in assay [2] was at most 100 nM each time.

Turning to `COc1cc2nccc(Oc3ccc(NC(=O)c4c(C)ncc(-c5cccnc5)c4O)cc3F)c2nc1OC` [Compound 228, N-[4-[(6,7-Dimethoxy-1,5-naphthyridin-4-yl)oxy]-3-fluorophenyl]-4-hydroxy-2-methyl-5-pyridin-3-ylpyridine-3-carboxamide], the IC50 in assay [1] and in assay [2] was at most 100 nM each time.

Regarding `COc1cc2nccc(Oc3ccc(NC(=O)c4cccn(-c5ccncc5)c4=O)cc3F)c2nc1OC` [Compound 229, N-[4-[(6,7-Dimethoxy-1,5-naphthyridin-4-yl)oxy]-3-fluorophenyl]-2-oxo-1-pyridin-4-ylpyridine-3-carboxamide], the IC50 in assay [1] and in assay [2] was at most 100 nM throughout.

As for `COc1cc2nccc(Oc3ccc(NC(=O)c4ccc(C)n(-c5ccnc(C)c5)c4=O)cc3F)c2nc1OC` [Compound 230, N-[4-[(6,7-Dimethoxy-1,5-naphthyridin-4-yl)oxy]-3-fluorophenyl]-6-methyl-1-(2-methylpyridin-4-yl)-2-oxopyridine-3-carboxamide], the IC50 in assay [1] and in assay [2] was at most 100 nM throughout.
